This test relates to mouse activated CD8 T cells. Description: Tcm differentiation and activation markers of stimulated mouse CD8 T cells (flow cytometry). It counts as cell-based. On the procedure:
8) Stimulation of Mouse CD8 T Cells
2 μg/ml of 145-2C11 Hamster anti-Mouse CD3e in 300 μl of PBS are plated in 24 flat bottom well non-TC treated plates. Incubate O/N at 4° C. CD8 T cells from spleens of 8-12 weeks old OT-1 transgenic mice are isolated. 4×10^5 cells/ml are counted and resuspended in complete RPMI (RPMI+10% FBS heat inactivated at 55° C. for 45 min+Pen/Strep+55 μM β-Mercaptoethanol). The following 2× solutions are prepared:
a. Anti-Mouse CD28 10 μg/ml 40 U/ml rmIL-2. (40 ml)
0.5 ml of 2× solution is added to the corresponding wells. Incubate for 4-8 days. Every 2 days add inhibitor to the corresponding concentration. When the cells are confluent, expand to 6 cm tissue culture plates adding 4 ml of complete RPMI+20 U/ml of IL-2 and in b add 10 μM K884.
Calculate the specific cell lysis as follows: Specific cell lysis=((Sample−BF)/(AF−BF))×100 10) Flow Cytometry 1. Cell Activation • a. Wash cells with 1 ml of culture medium; • b. Centrifuge cells for 5 min at 300 g; • c. Resuspend cells in culture medium; • d. Prepare 2× solutions (negative control with only culture medium, Positive condition with 50 ng/mL of PMA and 500 ng/mL of lonomycin); • e. Plate 100 μL of cell suspension in 96 well plates (U-bottom); • f. Add 100 μL of 2× solutions in appropriate wells; • g. Incubate 4 hours at 37 C, 5% CO2. 2. Extracellular Staining • a. Record cell quantity transfers per tube; • b. Wash cells with 1 mL of PBS+2% FBS; • c. Centrifuge cells for 5 min at 300 g; • d. Empty tubes by inversion; • e. Add the antibodies for extracellular staining; • f. Incubate 20 min at 4° C.; • g. Wash cells with 1 mL of PBS+2% FBS; • h. Centrifuge cells for 5 min at 300 g; • i. Empty tubes by inversion; • j. Ressuspend cells in 100 μL fixation/permeabilisation buffer (eBioscience, #00-5223-56, 1 volume of concentrate buffer+3 volumes of diluent buffer) • k. Incubate 30 min at room temperature or overnight at 4° C. 3. Intracellular Staining • a. Wash cells with 1 mL of permeabilization buffer (eBioscience, #00-8333-56, dilution 1/10 in ddH2O); • b. Centrifuge cells for 5 min at 300 g; • c. […]
On the technique in general: In flow cytometry, cells or beads pass a laser one at a time.

For the compound `CCOC(=O)c1cc2cc(C(F)(F)P(=O)(O)O)c(Br)cc2s1` [Ex. 1, ((6-BROMO-2-(ETHOXYCARBONYL)BENZO[B]THIOPHEN-5-YL)DIFLUOROMETHYL)PHOSPHONATE], the “expression of IL-2 receptor alpha (CD25), fluorescence” value (activated mouse CD8 cells, Tcm gate, compared to untreated) was “increase on fluorescence closer to one order of magnitude”. Moreover, for the setting “followed by 5 days incubation with recombinant murine IL-15”, the “percentage of Tcm population relative to cells with IL-15 alone” value is reported as roughly 2 times. Also, under “mouse activated CD8 T cells, compared to untreated cells”, the “differentiation into Tcm cells (CD62Lhigh-CD27high)” value was “increased differentiation into Tcm cells at higher rates than the observed in untreated cells”.

Values taken from patent US11597739B2, “Enhancing CD8+ T cells for adoptive T cell therapy by inhibiting PTPN1 (PTP1B) and PTPN2 (TC-PTP)” (The Royal Institution for the Advancement of …, priority 2017, dated 2023).
